Assay results reported in BigSolDB 2.1.

NC(=O)N1c2ccccc2CC(=O)c2ccccc21
solubility (mole fraction)
Conditions | in THF | in acetone | in acetonitrile | in ethanol | in isopropanol | in methanol | in n-butanol | in n-propanol
288.15 K | 0.00204 | 0.00105 | 0.000641 | 0.000273 | 0.000151 | 0.000534 | 0.000251 | 0.000245
293.15 K | 0.00217 | 0.0012 | 0.000751 | 0.000322 | 0.000187 | 0.000619 | 0.000309 | 0.000301
298.15 K | 0.00241 | 0.00134 | 0.000839 | 0.000383 | 0.000217 | 0.000759 | 0.000355 | 0.000358
303.15 K | 0.00266 | 0.00154 | 0.00103 | 0.000488 | 0.000299 | 0.000907 | 0.000479 | 0.000475
308.15 K | 0.00308 | 0.00182 | 0.00122 | 0.000617 | 0.000413 | 0.00111 | 0.000617 | 0.000616
